Test results published in patent US10189842B2 (Agency for Science, Technology and Research, priority 2013, dated 2019).

Test system: HEK293-STF3A cells
Test: STF3A assay (luciferase reporter)
Format: cell-based, Human
Settings: Homo sapiens, 24 h, 1 day of treatment
Excerpt: HEK293-STF cell line was modified from Human embryonic kidney cell line HEK293 transfected with the STF reporter. HEK293-STF3A cell line was further modified from HEK293-STF cell line to express Wnt3A. This cell line was used to identify compounds that regulate either early or late signaling components of the Wnt pathway. These two cell lines were obtained from David Virshup's laboratory, Duke-NUS. L-Wnt3A (ATCC, #CRL-2647) cell line was used for providing Wnt3A conditioned media. The three cell lines were grown in DMEM with 10% FBS incubated in 37° C. with 5% CO2.
2×10^4 HEK293-STF3A cells in 75 μl culture media were seeded in each well of white 96 well plates (Greiner #655098) and incubated overnight at 37° C. 25 μl serially diluted compound was added to the cells to give final concentration of 50 μM to 1.5 nM. After 1 day of treatment, 100 μl of Steady-Glo Luciferase Assay reagent (#E2520, Promega) was added to each well and incubated for 10 minutes at room temperature. Luminescence was measured using Tecan Safire2 plate reader.

SMILES	IC50 [nM]
Cc1cc2n(n1)CCCN2C(=O)CCC(=O)Nc1ccc(-c2cncc(Cl)c2)nc1 [Compound 108, N-(5′-chloro-[2,3′-bipyridin]-5-yl)-4-(2-methyl-6,7-dihydropyrazolo[1,5-a]pyrimidin-4(5H)-yl)-4-oxobutanamide]	< 100
Cc1cc2n(n1)CCN2C(=O)CCC(=O)Nc1cc(-c2cccc(Cl)c2)no1 [Compound 138, N-(3-(3-chlorophenyl)isoxazol-5-yl)-4-(6-methyl-2,3-dihydro-1H-imidazo[1,2-b]pyrazol-1-yl)-4-oxobutanamide]	> 10000
Cc1cc2n(n1)CCCN2C(=O)CCC(=O)Nc1ccc(-c2cnccn2)cn1 [Compound 50, 4-(2-methyl-6,7-dihydropyrazolo[1,5-a]pyrimidin-4(5H)-yl)-4-oxo-N-(5-(pyrazin-2-yl)pyridin-2-yl)butanamide]	< 100
Cc1cc2n(n1)CCCN2C(=O)CCC(=O)Nc1ncc(-c2ccccc2)cn1 [Compound 46, 4-{2-methyl-5H,6H,7H-pyrazolo[1,5-a]pyrimidin-4-yl}-4-oxo-N-(5-phenylpyrimidin-2-yl)butanamide]	< 1000
Cc1cc2n(n1)CC(C)CN2C(=O)CCC(=O)Nc1ccc(-c2cccnc2)nc1 (stereo not drawn) [Compound 140, N-(2,3′-bipyridin-5-yl)-4-(2,6-dimethyl-6,7-dihydropyrazolo[1,5-a]pyrimidin-4(5H)-yl)-4-oxobutanamide]	< 100
Cc1cc2n(n1)CCCN2C(=O)CCC(=O)Nc1ccc(N2CCCC2)cc1 [Compound 31, 4-(2-methyl-6,7-dihydropyrazolo[1,5-a]pyrimidin-4(5H)-yl)-4-oxo-N-(4-(pyrrolidin-1-yl)phenyl)butanamide]	< 5000
Cc1cc2n(n1)CCCN2C(=O)CCC(=O)Nc1ccc(-c2ccccc2)nn1 [Compound 45, 4-(2-methyl-6,7-dihydropyrazolo[1,5-a]pyrimidin-4(5H)-yl)-4-oxo-N-(6-phenylpyridazin-3-yl)butanamide]	< 100
Cc1cncc(-c2ncc(NC(=O)CCC(=O)N3CCCn4nc(C)cc43)cc2C)c1 [Compound 168, N-(3,5′-dimethyl-[2,3′-bipyridin]-5-yl)-4-(2-methyl-6,7-dihydropyrazolo[1,5-a]pyrimidin-4(5H)-yl)-4-oxobutanamide]	< 1000
Cc1cccc(-c2cc(NC(=O)CCC(=O)N3CCCn4nc(C)cc43)on2)c1 [Compound 11, 4-{2-methyl-5H,6H,7H-pyrazolo[1,5-a]pyrimidin-4-yl}-N-[3-(3-methylphenyl)-1,2-oxazol-5-yl]-4-oxobutanamide]	> 10000
COc1cc(-c2ccccc2)ccc1NC(=O)CCC(=O)N1CCCn2nc(C)cc21 [Compound 55, N-(3-methoxy-[1,1′-biphenyl]-4-yl)-4-(2-methyl-6,7-dihydropyrazolo[1,5-a]pyrimidin-4(5H)-yl)-4-oxobutanamide]	> 10000
Cc1cc2n(n1)CCCN2C(=O)CCC(=O)Nc1cc(-c2ccccc2Cl)no1 [Compound 6, N-(3-(2-chlorophenyl)isoxazol-5-yl)-4-(2-methyl-6,7-dihydropyrazolo[1,5-a]pyrimidin-4(5H)-yl)-4-oxobutanamide]	> 10000
Cc1cc2n(n1)CCCN2C(=O)CCC(=O)Nc1cc(C)c(-c2ccccc2)cn1 [Compound 92, N-(4-methyl-5-phenylpyridin-2-yl)-4-(2-methyl-6,7-dihydropyrazolo[1,5-a]pyrimidin-4(5H)-yl)-4-oxobutanamide]	< 1000
Cc1cc2n(n1)CC(C)CN2C(=O)CCC(=O)Nc1cc(F)c(-c2cccnc2)cn1 (stereo not drawn) [Compound 165, 4-(2,6-dimethyl-6,7-dihydropyrazolo[1,5-a]pyrimidin-4(5H)-yl)-N-(4-fluoro-[3,3′-bipyridin]-6-yl)-4-oxobutanamide]	< 100
Cc1cc2n(n1)CCCN2C(=O)CCC(=O)Nc1ccc(-c2cccc(N(C)C)c2)cc1 [Compound 72, N-(3′-(dimethylamino)-[1,1′-biphenyl]-4-yl)-4-(2-methyl-6,7-dihydropyrazolo[1,5-a]pyrimidin-4(5H)-yl)-4-oxobutanamide]	> 10000
Cc1cc2n(n1)CCCN2C(=O)CCC(=O)Nc1ccc(-c2ccc(N)cc2)cc1 [Compound 71, N-(4′-amino-[1,1′-biphenyl]-4-yl)-4-(2-methyl-6,7-dihydropyrazolo[1,5-a]pyrimidin-4(5H)-yl)-4-oxobutanamide]	< 100
Cc1cc2n(n1)CCCN2C(=O)CCC(=O)Nc1ccc(-c2cncnc2)cc1 [Compound 39, 4-{2-methyl-5H,6H,7H-pyrazolo[1,5-a]pyrimidin-4-yl}-4-oxo-N-[4-(pyrimidin-5-yl)phenyl]butanamide]	< 100
Cc1cncc(-c2ccc(NC(=O)C(C)CC(=O)N3CCCn4nc(C)cc43)nc2)c1 (stereo not drawn) [Compound 152, 2-methyl-4-(2-methyl-6,7-dihydropyrazolo[1,5-a]pyrimidin-4(5H)-yl)-N-(5′-methyl-[3,3′-bipyridin]-6-yl)-4-oxobutanamide]	< 100

SMILES	IC50 [nM]
Cc1cc2n(n1)CCCN2C(=O)CCC(=O)Nc1ccc(-c2ccc(F)cc2)cn1 [Compound 90, N-(5-(4-fluorophenyl)pyridin-2-yl)-4-(2-methyl-6,7-dihydropyrazolo[1,5-a]pyrimidin-4(5H)-yl)-4-oxobutanamide]	< 100
Cc1cc2n(n1)CCCN2C(=O)CCC(=O)Nc1ccc(-c2nccs2)cc1 [Compound 25]	< 100
Cc1cc2n(n1)CCCN2C(=O)CCC(=O)Nc1ccc(-c2cccc(F)c2)nn1 [Compound 98, N-(6-(3-fluorophenyl)pyridazin-3-yl)-4-(2-methyl-6,7-dihydropyrazolo[1,5-a]pyrimidin-4(5H)-yl)-4-oxobutanamide]	< 100
Cc1cncc(-c2ncc(NC(=O)CCC(=O)N3CCCn4nc(C)cc43)cc2F)c1 [Compound 158, N-(3-fluoro-5′-methyl-[2,3′-bipyridin]-5-yl)-4-(2-methyl-6,7-dihydropyrazolo[1,5-a]pyrimidin-4(5H)-yl)-4-oxobutanamide]	< 100
Cc1cc2n(n1)CCCN2C(=O)CCC(=O)Nc1cc(-c2cccc(C(F)(F)F)c2)no1 [Compound 13, 4-{2-methyl-5H,6H,7H-pyrazolo[1,5-a]pyrimidin-4-yl}-4-oxo-N-{3-[3-(trifluoromethyl)phenyl]-1,2-oxazol-5-yl}butanamide]	> 10000
Cc1cc2n(n1)CCCN2C(=O)CCC(=O)Nc1cc(-c2ccc(N)cc2)no1 [Compound 15, N-[3-(4-aminophenyl)-1,2-oxazol-5-yl]-4-{2-methyl-5H,6H,7H-pyrazolo[1,5-a]pyrimidin-4-yl}-4-oxobutanamide]	> 10000
Cc1cc2n(n1)CCCN2C(=O)CCC(=O)Nc1ccc(-c2ccnn2C)cc1 [Compound 29, N-(4-(1-methyl-1H-pyrazol-5-yl)phenyl)-4-(2-methyl-6,7-dihydropyrazolo[1,5-a]pyrimidin-4(5H)-yl)-4-oxobutanamide]	< 1000
Cc1cc2n(n1)CCCN2C(=O)CCC(=O)Nc1ccc(-c2cccc(F)c2)nc1 [Compound 84, N-(6-(3-fluorophenyl)pyridin-3-yl)-4-(2-methyl-6,7-dihydropyrazolo[1,5-a]pyrimidin-4(5H)-yl)-4-oxobutanamide]	< 100
Cc1cc2n(n1)CCCN2C(=O)CCC(=O)Nc1ccc(-c2ccccc2)c(C)c1 [Compound 54, 4-(2-methyl-6,7-dihydropyrazolo[1,5-a]pyrimidin-4(5H)-yl)-N-(2-methyl-[1,1′-biphenyl]-4-yl)-4-oxobutanamide]	< 100
Cc1cccc(-c2ccc(NC(=O)CCC(=O)N3CCCn4nc(C)cc43)cn2)c1 [Compound 85, 4-(2-methyl-6,7-dihydropyrazolo[1,5-a]pyrimidin-4(5H)-yl)-4-oxo-N-(6-(m-tolyl)pyridin-3-yl)butanamide]	< 100
COc1cccc(-c2ccc(NC(=O)CCC(=O)N3CCCn4nc(C)cc43)cc2)c1 [Compound 62, N-(3′-methoxy-[1,1′-biphenyl]-4-yl)-4-(2-methyl-6,7-dihydropyrazolo[1,5-a]pyrimidin-4(5H)-yl)-4-oxobutanamide]	< 100
Cc1cc2n(n1)CCCN2C(=O)CCC(=O)Nc1ccc(-c2cnccn2)nc1 [Compound 166, 4-(2-methyl-6,7-dihydropyrazolo[1,5-a]pyrimidin-4(5H)-yl)-4-oxo-N-(6-(pyrazin-2-yl)pyridin-3-yl)butanamide]	< 1000
Cc1cc2n(n1)CCCN2C(=O)CCC(=O)Nc1ncc(-c2ccccc2)cc1C [Compound 91, N-(3-methyl-5-phenylpyridin-2-yl)-4-(2-methyl-6,7-dihydropyrazolo[1,5-a]pyrimidin-4(5H)-yl)-4-oxobutanamide]	< 5000
Cc1cncc(-c2cnc(NC(=O)CCC(=O)N3CCCn4nc(C)cc43)cc2C)c1 [Compound 120, N-(4,5′-dimethyl-3,3′-bipyridin-6-yl)-4-(2-methyl-6,7-dihydropyrazolo[1,5-a]pyrimidin-4(5H)-yl)-4-oxobutanamide]	< 5000
Cc1cc2n(n1)CCCN2C(=O)CCC(=O)Nc1ccc(-c2cccc(F)c2)cc1 [Compound 65, N-(3′-fluoro-[1,1′-biphenyl]-4-yl)-4-(2-methyl-6,7-dihydropyrazolo[1,5-a]pyrimidin-4(5H)-yl)-4-oxobutanamide]	< 100
Cc1ccc(-c2ccc(NC(=O)CCC(=O)N3CCCn4nc(C)cc43)cc2)cc1 [Compound 60, 4-(2-methyl-6,7-dihydropyrazolo[1,5-a]pyrimidin-4(5H)-yl)-N-(4′-methyl-[1,1′-biphenyl]-4-yl)-4-oxobutanamide]	< 100
